Measurements reported in patent publication US20230057568A1, “COMPOUNDS FOR TREATING FAMILIAL DYSAUTONOMIA” (PTC THERAPEUTICS, INC., priority 2019, published 2023).

Test system: Elongator complex protein 1 (ELP1, also referred to as IKBKAP)
Assay: IKBKAP-HTRF Assay
Assay type: cell-based, human
Conditions: FD patient-derived fibroblasts GM04589, 48 hours incubation; for EC2x for IKBKAP protein expression (concentration producing two times the amount of IKBKAP protein vs DMSO vehicle control): 7-point concentration curve; for MFI (maximum fold increase in IKBKAP protein abundance relative to the vehicle control): HTRF
Experimental: The assay is used for the quantitative determination of Elongator complex protein 1 (ELP1, also referred to as IKBKAP) concentration in cell lysates using the HTRF® (Homogeneous Time-Resolved Fluorescence) technology. IKBKAP is detected in a sandwich HTRF assay by use of an anti-IKAP antibody labeled with a donor and an anti-IKAP antibody labeled with an acceptor.
Cells were thawed and incubated in DMEM-10% FBS for 72 hours. Cells were trypsinized, counted, and re-suspended to a concentration of 50,000 cells/mL in DMEM-10% FBS. A 199 μL, aliquot of the cell suspensions were plated at 10,000 cells per well in a 96 well microtiter plate and incubated for 3 to 5 hours. […] Test compounds were serially diluted 3.16-fold in 100% DMSO to generate a 7-point concentration curve. A 1 μL aliquot of 200× compound solution was transferred to cell-containing wells, and cells were incubated for 48 hours in a cell culture incubator (37° C., 5% CO2, 100% relative humidity). Triplicate samples were set up for each compound concentration. After 48 hours, the supernatant was removed from the cells and 50 μL of the 1× LB4 lysis buffer, containing protease inhibitors, was added to the cells and incubated with shaking at room temperature for 1 hour. A 36 μL aliquot of this lysate was subsequently transferred to the 384-well plate containing 4 μL of the antibody solution (1:50 dilution of anti IKAP d2 and anti-IKAP K(9+8) in detection buffer). The 384-well plate was then centrifuged for 1 minute to bring the solutions to the bottom of the plate and incubated overnight at 4° C. Fluorescence for each well of the plate at 665 nm and 620 nm was measured was on the EnVision plate reader (Perkin Elmer). The AF for each sample is calculated by: […]
wherein Signal is the normalized fluorescence for each sample well and Blank is the average normalized average fluorescence for the Blank control wells.
The maximum fold increase (MFI) in IKBKAP protein abundance for compounds of Formula (I) or a form thereof relative to the vehicle control are provided in Table 1. MFI was calculated by dividing the AF value for each sample well by the sample AF for the vehicle control wells.
The EC2× for IKBKAP protein expression obtained from the 7-point concentration curve generated for each test compound according to the protocol in Biological Example 1 are also provided in Table 1. The term “EC2× for IKBKAP protein expression” is defined as the concentration of test compound that is effective in producing two times the amount of IKBKAP protein in a FD patient cell compared to the amount produced from the DMSO vehicle control.

SMILES	EC2x for IKBKAP protein expression (concentration producing two times the amount of IKBKAP protein vs DMSO vehicle control)	MFI (maximum fold increase in IKBKAP protein abundance relative to the vehicle control)
CC[C@H](N)Cc1sc2c(NCc3sccc3F)nc(Cl)nc2c1C [Cpd 91, 6-[(2S)-2-aminobutyl]-2-chloro-N-[(3-fluorothiophen-2-yl)methyl]-7-methylthieno[3,2-d]pyrimidin-4-amine]	**** (between >0.005 μM and ≤0.02 μM)	***** (>4.9)
Cc1csc2c(NCc3ccco3)nc(C(F)(F)F)nc12 [Cpd 25, N-[(furan-2-yl)methyl]-7-methyl-2-(trifluoromethyl)thieno[3,2-d]pyrimidin-4-amine]	* (EC2×>1 μM)	* (MFI<1.9)
Cc1c(C[C@H](C)N)sc2c(NCc3cccnc3F)nc(Cl)nc12 [Cpd 60, 6-[(2S)-2-aminopropyl]-2-chloro-N-[(2-fluoropyridin-3-yl)methyl]-7-methylthieno[3,2-d]pyrimidin-4-amine]	*** (between >0.02 μM and ≤0.5 μM)	*** (between >2.9 and <3.9)
Cc1c(C[C@H](C)N)sc2c(NCc3ncccc3F)nc(Cl)nc12 [Cpd 59, 6-[(2S)-2-aminopropyl]-2-chloro-N-[(3-fluoropyridin-2-yl)methyl]-7-methylthieno[3,2-d]pyrimidin-4-amine]	*** (between >0.02 μM and ≤0.5 μM)	**** (between >3.9 and <4.9)
CC(C)[C@H](N)Cc1cc2nc(Cl)nc(NCc3ccco3)c2s1 [Cpd 5, 6-[(2R)-2-amino-3-methylbutyl]-2-chloro-N-[(furan-2-yl)methyl]thieno[3,2-d]pyrimidin-4-amine]	*** (between >0.02 μM and ≤0.5 μM)	*** (between >2.9 and <3.9)
Cc1c(C[C@H](C)N)sc2c(NCc3ccco3)nc(C(N)=O)nc12 [Cpd 20, 6-[(2S)-2-aminopropyl]-4-{[(furan-2-yl)methyl]amino}-7-methylthieno[3,2-d]pyrimidine-2-carboxamide]	* (EC2×>1 μM)	** (between >1.9 and <2.9)
Cc1c(C[C@H](C)N)sc2c(NCc3cccs3)nc(Cl)nc12 [Cpd 28, 6-[(2S)-2-aminopropyl]-2-chloro-7-methyl-N-[(thiophen-2-yl)methyl]thieno[3,2-d]pyrimidin-4-amine]	***** (<0.005 μM)	***** (>4.9)
N[C@@H](CO)Cc1cc2nc(Cl)nc(NCc3ccco3)c2s1 [Cpd 22, (2R)-2-amino-3-(2-chloro-4-{[(furan-2-yl)methyl]amino}thieno[3,2-d]pyrimidin-6-yl)propan-l-ol]	***** (<0.005 μM)	***** (>4.9)
C[C@H](N)Cc1cc2ncnc(NCc3ccco3)c2s1 [Cpd 8, 6-[(2S)-2-aminopropyl]-N-[(furan-2-yl)methyl]thieno[3,2-d]pyrimidin-4-amine]	*** (between >0.02 μM and ≤0.5 μM)	*** (between >2.9 and <3.9)
Cc1c(C2CCNC2)sc2c(NCc3ccco3)nc(Cl)nc12 (stereo not drawn) [Cpd 57, 2-chloro-N-[(furan-2-yl)methyl]-7-methyl-6-(pyrrolidin-3-yl)thieno[3,2-d]pyrimidin-4-amine]	*** (between >0.02 μM and ≤0.5 μM)	*** (between >2.9 and <3.9)
Cc1c(C[C@H](C)N)sc2c(NCc3ccco3)nc(C#N)nc12 [Cpd 21, 6-[(2S)-2-aminopropyl]-4-{[(furan-2-yl)methyl]amino}-7-methylthieno[3,2-d]pyrimidine-2-carbonitrile]	**** (between >0.005 μM and ≤0.02 μM)	***** (>4.9)
Cc1c([C@H](C)N)sc2c(NCc3ccco3)nc(Cl)nc12 [Cpd 47, 6-[(1S)-1-aminoethyl]-2-chloro-N-[(furan-2-yl)methyl]-7-methylthieno[3,2-d]pyrimidin-4-amine]	*** (between >0.02 μM and ≤0.5 μM)	*** (between >2.9 and <3.9)
Cc1ccoc1CNc1nc(Cl)nc2c(C)c(C[C@H](C)N)sc12 [Cpd 30, 6-[(2S)-2-aminopropyl]-2-chloro-7-methyl-N-[(3-methylfuran-2-yl)methyl]thieno[3,2-d]pyrimidin-4-amine]	*** (between >0.02 μM and ≤0.5 μM)	**** (between >3.9 and <4.9)
N#Cc1csc2c(NCc3cccs3)nc(Cl)nc12 [Cpd 84, 2-chloro-4-{[(thiophen-2-yl)methyl]amino}thieno[3,2-d]pyrimidine-7-carbonitrile]	*** (between >0.02 μM and ≤0.5 μM)	**** (between >3.9 and <4.9)
CC[C@H](N)Cc1sc2c(NCc3nccs3)nc(Cl)nc2c1C [Cpd 54, 6-[(2S)-2-aminobutyl]-2-chloro-7-methyl-N-[(1,3-thiazol-2-yl)methyl]thieno[3,2-d]pyrimidin-4-amine]	***** (<0.005 μM)	***** (>4.9)
Clc1nc(NCc2ccncc2)c2sccc2n1 [Cpd 1, 2-chloro-N-[(pyridin-4-yl)methyl]thieno[3,2-d]pyrimidin-4-amine]	* (EC2×>1 μM)	**** (between >3.9 and <4.9)
CCc1nc(NCc2ccco2)c2sc(C[C@H](C)N)c(C)c2n1 [Cpd 16, 6-[(2S)-2-aminopropyl]-2-ethyl-N-[(furan-2-yl)methyl]-7-methylthieno[3,2-d]pyrimidin-4-amine]	*** (between >0.02 μM and ≤0.5 μM)	*** (between >2.9 and <3.9)
Clc1nc(NCc2ccncc2)c2scc(Br)c2n1 [Cpd 43, 7-bromo-2-chloro-N-[(pyridin-4-yl)methyl]thieno[3,2-d]pyrimidin-4-amine]	*** (between >0.02 μM and ≤0.5 μM)	**** (between >3.9 and <4.9)
Cc1c(C[C@H](C)N)sc2c(NCc3ncccn3)nc(Cl)nc12 [Cpd 55, 6-[(2S)-2-aminopropyl]-2-chloro-7-methyl-N-[(pyrimidin-2-yl)methyl]thieno[3,2-d]pyrimidin-4-amine]	*** (between >0.02 μM and ≤0.5 μM)	*** (between >2.9 and <3.9)
Cc1csc(CNc2nc(Cl)nc3c(C)c(C[C@H](C)N)sc23)n1 [Cpd 27, 6-[(2S)-2-aminopropyl]-2-chloro-7-methyl-N-[(4-methyl-1,3-thiazol-2-yl)methyl]thieno[3,2-d]pyrimidin-4-amine]	** (between >0.5 μL and ≤1 μM)	*** (between >2.9 and <3.9)
Cc1c(C[C@@H](C)CN)sc2c(NCc3ccco3)nc(Cl)nc12 [Cpd 72, 6-[(2R)-3-amino-2-methylpropyl]-2-chloro-N-[(furan-2-yl)methyl]-7-methylthieno[3,2-d]pyrimidin-4-amine]	*** (between >0.02 μM and ≤0.5 μM)	*** (between >2.9 and <3.9)
